Measured values as given in PubChem BioAssay (NCI).
“And” between values parts separate entries of the source, which are not always exact repeats. Equal entries are not always repeated.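 Test compounds were applied to cells in 96-well plates for 48 hours at 5 doses. GI50 = concentration required for 50% inhibition of growth. TGI: concentration producing complete growth inhibition.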

Tests used:
Test in all cases: inhibition of tumour cell growth, NCI panel, 48 h
[1] = test system: SW-620 colon
[2] = test system: RXF 393 renal
[3] = test system: MALME-3M melanoma
[4] = test system: K-562 leukemia
[5] = test system: TK-10 renal
[6] = test system: MCF7 breast
[7] = test system: LOX IMVI melanoma
[8] = test system: KM12 colon
[9] = test system: EKVX NSCLC
[10] = test system: SK-MEL-28 melanoma
[11] = test system: IGROV1 ovarian
[12] = test system: SF-268 CNS
[13] = test system: UACC-257 melanoma
[14] = test system: SNB-75 CNS
[15] = test system: 786-0 renal
[16] = test system: NCI-H226 lung
[17] = test system: HCT-15 colon
[18] = test system: OVCAR-4 ovarian
[19] = test system: BT-549 breast
[20] = test system: CCRF-CEM leukemia
[21] = test system: DU-145 prostate
[22] = test system: SR leukemia
[23] = test system: ACHN renal
[24] = test system: SNB-19 CNS
[25] = test system: PC-3 prostate
[26] = test system: HT29 colon
[27] = test system: U251 CNS
[28] = test system: A549 NSCLC
[29] = test system: SK-MEL-2 melanoma
[30] = test system: M14 melanoma
[31] = test system: SF-295 CNS
[32] = test system: MOLT-4 leukemia
[33] = test system: NCI/ADR-RES ovarian
[34] = test system: HOP-92 NSCLC
[35] = test system: CAKI-1 renal
[36] = test system: SK-MEL-5 melanoma
[37] = test system: HCT-116 colon
[38] = test system: UO-31 renal
[39] = test system: HS 578T breast
[40] = test system: SK-OV-3 ovarian
[41] = test system: MDA-MB-435
[42] = test system: OVCAR-8 ovarian
[43] = test system: HL-60(TB) leukemia
[44] = test system: NCI-H522 lung
[45] = test system: SF-539 CNS
[46] = test system: RPMI-8226 leukemia
[47] = test system: NCI-H460 lung
[48] = test system: COLO 205 colon
[49] = test system: SN12C renal
[50] = test system: NCI-H23 lung
[51] = test system: UACC-62 melanoma
[52] = test system: HOP-62 NSCLC
[53] = test system: HCC-2998 colon
[54] = test system: MDA-MB-231 breast
[55] = test system: MDA-N
[56] = test system: A498 renal
[57] = test system: OVCAR-3 ovarian
[58] = test system: OVCAR-5 ovarian
[59] = test system: T-47D breast

With `CN(C)CCOC1(Cc2ccc(F)cc2)CCC(C(C)(C)C)CC1` (centres undefined) the TGI [1] was 16.6 µM and 20.7 µM, the TGI [2] was 8.04 µM and the TGI [3] was 7.95 µM and 10.6 µM. For the same compound, the TGI [4] was 5.05 µM and 7.04 µM, the TGI [5] was 20.5 µM and 24.7 µM and the TGI [6] was 14.3 µM and 18.3 µM. For the same compound, the TGI [7] was 7.05 µM and 10.5 µM, the TGI [8] was 19.3 µM and 18.1 µM and the TGI [9] was 27.4 µM and 32.5 µM. For the same compound, the TGI [10] was 14.7 µM and 12 µM, the TGI [11] was 23.8 µM and 24.3 µM and the TGI [12] was 27.2 µM and 28 µM. For the same compound, the TGI [13] was 13.4 µM and 12.1 µM, the GI50 [14] was 4.03 µM and 8.49 µM and the TGI [14] was 17.2 µM and 16.5 µM. For the same compound, the TGI [15] was 15.9 µM and 11.7 µM, the TGI [16] was 27.5 µM and 26.8 µM and the TGI [17] was 21.9 µM and 19.7 µM. The GI50 [18] was 4.33 µM and 9.3 µM, the TGI [18] was 15 µM and 22.5 µM and the GI50 [19] was 3.29 µM and 8.02 µM. For the same compound, the TGI [19] was 13.3 µM and 20.9 µM, the TGI [20] was 9.82 µM and 12.9 µM and the TGI [21] was 21.4 µM and 22.3 µM. For the same compound, the TGI [22] was 8.37 µM and 6.34 µM, the TGI [23] was 23.5 µM and 25.7 µM and the TGI [24] was 24.6 µM and 19.4 µM. The TGI [25] was 17.4 µM and 19 µM, the TGI [26] was 9.5 µM and 8.3 µM and the TGI [27] was 17.3 µM and 19.2 µM. For the same compound, the TGI [28] was 22 µM and 25.3 µM, the GI50 [29] was 10.8 µM and 2.78 µM and the TGI [29] was 24.4 µM and 8.73 µM. For the same compound, the TGI [30] was 3.27 µM and 3.93 µM, the TGI [31] was 11.9 µM and 13.1 µM and the TGI [32] was 8.88 µM and 12.3 µM. The TGI [33] was 24.2 µM and 27.7 µM, the TGI [34] was 25.3 µM and the TGI [35] was 19.4 µM and 21 µM. For the same compound, the TGI [36] was 3.42 µM and 5.03 µM, the TGI [37] was 15.6 µM and 15.9 µM and the TGI [38] was 19.2 µM and 18.2 µM. The TGI [39] was 32.3 µM and 28 µM, the TGI [40] was 27.7 µM and 28.7 µM and the TGI [41] was 15 µM and 12.3 µM. For the same compound, the TGI [42] was 25.1 µM and 26.9 µM, the TGI [43] was 13.1 µM and the TGI [44] was 14.2 µM and 23.5 µM. For the same compound, the GI50 [45] was 5.73 µM and 13.4 µM, the TGI [45] was 19.1 µM and 27.1 µM and the TGI [46] was 5.09 µM and 7.79 µM. For the same compound, the TGI [47] was 11.1 µM and 7.09 µM, the TGI [48] was 4.7 µM and 5.66 µM and the TGI [49] was 25 µM and 27.5 µM. The TGI [50] was 27.5 µM and 24.8 µM, the TGI [51] was 15.8 µM and 17 µM and the TGI [52] was 19.3 µM and 18.8 µM. The TGI [53] was 12.3 µM and 12.7 µM, the TGI [54] was 23.8 µM and 22.9 µM and the TGI [55] was 17.3 µM and 10.5 µM. For the same compound, the TGI [56] was 26 µM and 29.3 µM, the TGI [57] was 23.2 µM and 28.1 µM and the TGI [58] was 21 µM and 20.5 µM. The TGI [59] was 17.1 µM and 13.7 µM.
